Where “and” joins values, the source holds several entries; their conditions need not be identical. Identical values can stand only once. Marks after values point to notes of the source that are not given here.
Columns and labels:
Acute toxicity (LD), cat = conditions: in vivo
Description: The acute toxicity of the ingredient in the medical composition of the present invention which exerts the anti-fibrotic activity is as shown in the table below: […]

[1] = test system: fibrosis (interstitial hyperplasia); experiment: Histopathological examination of rat lungs for fibrosis after three months of drug in the diet; assay type: in vivo; conditions: rats; for Lung Connective Tissue Score, Mean: 300 mg/kg (p.o.) in the diet for three months, score 0, 1, 2, 3 = degree of fibrosis, control mean 1.63, 300 mg/kg
Protocol: The results of a histopathological examination of the lungs of rats for fibrosis (interstitial hyperplasia) after receiving 300mg/kg body weight of pirfenidone in the diet for three months are summarized in Table 2. The individual microscopic readings of the lung are also shown in Table 2, where a score schedule of 0, 1, 2, and 3 reflects the degree of fibrosis.
The data in Table 2 reveal a statistically significant reduction in the amount of fibrosis in rats receiving pirfenidone as compared to placebo control rats (Group 1). The mean score for the controls (Group 1) was 1.63 +/-0.23, and for Group IV (pirfenidone, 300mg/kg body weight daily was 0.95 +/-0.23.
Student's T value was 2.43, with P less than 0.02 (highly significant statistically).

[2] = test system: PULMONARY INTERSTITIAL HYPERPLASIA (FIBROSIS); experiment: Pulmonary interstitial hyperplasia (fibrosis) in dogs, oral capsules, microscopic scoring; assay type: in vivo, Beagle dogs; conditions: for Hyperplasia Scores 0 (number of dogs): 0 = normal tissue; for Hyperplasia Scores 1 (number of dogs): 1 = minimal; for Hyperplasia Scores 2 (number of dogs): 2 = moderate; for Hyperplasia Scores 3 (number of dogs): 3 = severe; for Incidence of Normal Lung: control 0/9
Protocol: The mean score for Group I (Control) was 2.11 +/-0.31, and for Group IV, which received pirfenidone, 150 mg/kg per day orally in capsules, was 0.22 +/-0.19.

[3] = test system: ASBESTOS-INDUCED PULMONARY IN[…]; experiment: Asbestos-induced pulmonary interstitial fibrosis in hamsters; assay type: in vivo
Description: In hamsters, pulmonary fibrosis induced with crysotile asbestos was removed following oral pirfenidone (Table 4).
The novel role of pirfenidone in the therapeutic repair of fibrotic lung tissue featuring removal of fibrotic lesions, and concomitant regeneration of normal lung tissue has been observed in experimental asbestosis by histopathological examination of lung tissue specimens under the light microscope, and electron microscopy (Table 4).
This was subsequently confirmed by ashing of lung specimens in a laboratory oven, and then determining the asbestos content.

[4] = test system: CYCLOPHOSPHAMIDE-INDUCED IN[…]; experiment: Cyclophosphamide-induced interstitial fibrosis in mice; assay type: in vivo
Description: In mice, pulmonary fibrosis induced with cyclophosphamide […] and is know to produce pulmonary fibrosis in patients as a side effect.

Pulmonary fibrosis = experiment: Clinical human open trial, pulmonary fibrosis; assay type: in vivo
Protocol: (§1) Clinical human open trials have been undertaken as follows: • 1. Pulmonary fibrosis diagnosed as caused by asbestos was treated with pirfenidone and closely and objectively followed in two subjects. […] Pulmonary fibrosis diagnosed as idiopathic in nature was treated with pirfenidone and closely and objectively followed in one subject for over two years. […] Two subjects suffered from frequency, severe nocturia, incontinence, constant urgency, and in the third these symptoms were less severe. Clinically, all had enlarged prostates that explained the symptoms. The results were dramatic in the eldest subject within two weeks of therapy. Nocturia of 6-7 trips (every 60-90 minutes) per night was reduced to 1 or 2 nightly (4-5 hours apart). In the other two patients, nocturia 3-4 times (every 2-3 hours) was reduced to once nightly 4-5 hours after retiring. […] Inhibition of excessive scar formation by direct application of pirfenidone ointment to skin lesions in 10 cases.

[5] = test system: Benign prostate hypertrophy; experiment: Clinical human open trial, benign prostate hypertrophy; assay type: in vivo
Protocol: as §1

[6] = test system: Fibrosis of the ventricular myocardium; experiment: Clinical human open trial, fibrosis of the ventricular myocardium; assay type: in vivo
Protocol: as §1

[7] = 300 mg/kg (p.o.), three months, 19 animals
[8] = group average, asbestos + 500 mg/kg/day in the diet two months, asbestos only 2.75+/-0.25
[9] = individual hamsters, asbestos + 500 mg/kg/day in the diet two months, 0 = normal tissue, 1 = minimal, 2 = moderate, 3 = severe, 500 mg/kg/day
[10] = GROUP II: cyclophosphamide 200 mg/kg i.p. plus 500 mg/kg/day p.o.

Cc1ccc(=O)n(-c2ccccc2)c1 [pirfenidone, 5-methyl-1-phenyl-2-(1H) pyridone]
LD50 (Acute toxicity (LD), cat; iv): 40 mg/kg | LD50 (Acute toxicity (LD), cat; po): 500 mg/kg | Lung Connective Tissue Score, Mean [1]: 0.95 +/-0.23 | Lung Connective Tissue Score, Mean ([1]; listed as PIRFENIDONE): 0.95 | Lung Connective Tissue Score 0, Total (animals) [1, 7]: 5 | Lung Connective Tissue Score 1, Total (animals) [1, 7]: 11 | Lung Connective Tissue Score 2, Total (animals) [1, 7]: 2 | Lung Connective Tissue Score 3, Total (animals) [1, 7]: 1 | Hyperplasia Scores 0 (number of dogs) ([2]; 25 mg/kg/day oral): 1 | Hyperplasia Scores 1 (number of dogs) ([2]; 25 mg/kg/day oral): 1 | Hyperplasia Scores 2 (number of dogs) ([2]; 25 mg/kg/day oral): 4 | Hyperplasia Scores 3 (number of dogs) ([2]; 25 mg/kg/day oral): 0 | Incidence of Normal Lung ([2]; 25 mg/kg/day oral): 1/6 | Average Scores ([2]; 25 mg/kg/day oral, hyperplasia score 0-3, control 2.11+/-0.31): 1.50+/-0.34 | Hyperplasia Scores 0 (number of dogs) ([2]; 75 mg/kg/day oral): 2 | Hyperplasia Scores 1 (number of dogs) ([2]; 75 mg/kg/day oral): 2 | Hyperplasia Scores 2 (number of dogs) ([2]; 75 mg/kg/day oral): 3 | Hyperplasia Scores 3 (number of dogs) ([2]; 75 mg/kg/day oral): 1 | Incidence of Normal Lung ([2]; 75 mg/kg/day oral): 2/8 | Average Scores ([2]; 75 mg/kg/day oral, hyperplasia score 0-3, control 2.11+/-0.31): 1.38+/-0.38 | Hyperplasia Scores 0 (number of dogs) ([2]; 150 mg/kg/day oral): 7 | Hyperplasia Scores 1 (number of dogs) ([2]; 150 mg/kg/day oral): 2 | Hyperplasia Scores 2 (number of dogs) ([2]; 150 mg/kg/day oral): 0 | Hyperplasia Scores 3 (number of dogs) ([2]; 150 mg/kg/day oral): 0 | Incidence of Normal Lung ([2]; 150 mg/kg/day oral): 7/9 | Average Scores ([2]; 150 mg/kg/day orally in capsules, hyperplasia score 0-3, control 2.11+/-0.31, P<0.001, 150 mg/kg/day): 0.22 +/-0.19 | Average Scores ([2]; 150 mg/kg/day orally in capsules, hyperplasia score 0-3, control 2.11+/-0.31, P<0.001, listed as Pirfenidone, 150 mg/kg/day): 0.22+/-0.15** | recurrence of asbestos-induced fibrosis ([3]; after drug had been discontinued for two months): did not recur | lung cell-imbedded asbestos fibers ([3]; electron microscope, confirmed by ashing of lung specimens and asbestos content): had been removed | Lung Density, Average ([3]; group average, asbestos + 500 mg/kg/day in the diet two months, asbestos only 2.53+/-0.23): 1.17+/-0.10 | Pulmonary Fibrosis Score Electron Microscope, Average [3, 8]: 0.25+/-0.25 | Pulmonary Fibrosis Score Light Microscope, Average [3, 8]: 1.00+/-0.41 | pulmonary fibrosis induced with crysotile asbestos ([3]; hamsters, oral): removed | Pulmonary Fibrosis Score Electron Microscope [3, 9]: 0 (3×) and 1 | Pulmonary Fibrosis Score Light Microscope [3, 9]: 0 and 2 and 1 (2×) | Lung Density ([3]; individual hamsters, asbestos by inhalation 5 days, 500 mg/kg/day orally in the diet for two months, beginning two months after exposure, 500 mg/kg/day): 0.98 and 1.04 and 1.26 and 1.41 | Lung Dry Wt. [4, 10]: 52.4+/-0.9 Mg. | Lung FIBROSIS Scores (N/N), incidence of scores 3.0 or less [4, 10]: 3/5 | Lung FIBROSIS Scores ([4]; GROUP II: cyclophosphamide 200 mg/kg i.p. plus 500 mg/kg/day p.o., scoring 0 through 6): 2.99+/-0.75 | pulmonary fibrosis induced with cyclophosphamide ([4]; mice, oral administration): removed | Clinical impressions (Pulmonary fibrosis; pulmonary fibrosis diagnosed as caused by asbestos, two subjects): dramatic and highly favorable | Clinical impressions (Pulmonary fibrosis; pulmonary fibrosis diagnosed as idiopathic, one subject followed for over two years): highly favorable | digital examination of the prostate ([5]; all cases, in 3-4 weeks): detectable reduction in the size of the prostate | Nocturia after therapy ([5]; other two patients, before 3-4 times (every 2-3 hours)): once | clinical results ([5]; three elderly subjects (66-100 years)): very good to excellent | fibrosis of the ventricular myocardium (electrocardiogram maps and nuclear resonance determinations) ([6]; one subject (diagnosed as terminal), after repeated coronary infarcts): objective evidence of the reduction of the fibrosis | survival of the subject ([6]; one subject diagnosed as terminal, drug terminated after 18 months): additional three years

Reference: EP0702551B1, “COMPOSITIONS AND METHODS FOR REPARATION AND PREVENTION OF FIBROTIC LESIONS” (MARGOLIN, Solomon B., priority 1993, dated 1994)
